Laboratory results taken from PMC4077824, “Conserved Prosegment Residues Stabilize a Late-Stage Folding Transition State of Pepsin Independently of Ground States” (PLoS ONE, 2014).
Where no end group is shown, it is not given here.

How the values were obtained:
[1] = CD spectroscopy of prosegment; type: physicochemical; details: PSwt 0.1 mg/ml, pure water or 20 mM acetic acid/NaOH pH 5.3 with and without 100 mM NaCl
Procedure: CD data were collected using a Jasco J-810 spectropolarimeter (Jasco corp., Tokyo, Japan), over a wavelength range of 250 nm to 190 nm with a 1 nm resolution, 100 nm/min scan rate, 0.25 s response time and four-fold accumulation of scans. PSwt was diluted to 0.1 mg/ml in either pure water or 20 mM acetic acid/NaOH buffer at pH 5.3, with and without 100 mM NaCl, and loaded into a cell with a 0.1 cm path length. Background spectra were subtracted and the sample spectra converted to units of mean residue ellipticity, MRE, using MRE = MRW ×θ λ/(10×d×c), where MRW is the mean residue weight (molecular weight/number of residues), θ λ is the measured ellipticity at a particular wavelength (degrees), d is the pathlength (0.1 cm) and c is the protein concentration (g/cm^3).
Supplementary file pone.0101339.s006.tif: Figure S6 CD spectra of prosegment. Far-UV CD spectra of PSwt, in ddH2O and in 20 mM acetic acid/NaOH, at pH 5.3, with and without 100 mM NaCl added. […] Anal Biochem 287: 243–251]. (TIF) Click here for additional data file.

[2] = tested on: pepsin (PS-Rp, PS-TS, PS-Np complexes); details: ref [7]; cited from earlier work
From the text: It seems likely that the PS has achieved this higher affinity for the TS via a concerted optimization of side-chain packing, hydrogen bonding and electrostatics, as evidenced by polar, hydrophobic and charged groups selectively stabilizing the TS ( Fig 3A ). Furthermore, this concerted optimization likely involves both non-native and strengthened native contacts, given the range of interactions involved. In the native fold [ ...

For “LVKVPLVRKKSLRQNLIKNGKLKDFLKTHKHNPASKYFPEAAAL [WT]”, the “secondary structure of free PS by CD” value [1] is listed as “A negative band at 198 nm is characteristic of random coil structure”, the “secondary structure of free PS by CD” value ([1]; listed as PS) is listed as “unstructured on its own” and the “affinity for folding TS” value [2] is listed as “picomolar affinity”.
